Data set [1] is described as follows: Inhibition of human GFP-fused ABCG2 expressed in MDCK2 cells assessed as potentiation of SN-38 induced cytotoxicity by measuring cell viability after 72 hrs by MTT assay. (Formazan colour is commonly taken as a measure of viable cells.)
The nature of data set [2]: Inhibition of human GFP-fused ABCG2 expressed in MDCK2 cells assessed as potentiation of mitoxantrone induced cytotoxicity by measuring cell viability after 72 hrs by MTT assay.

Molecules are shown by their SMILES.

As for `N#Cc1cccc(Nc2nc(-c3cccnc3)nc3ccccc23)c1`, the EC50 in data set [1] is 85 nM.
With `O=[N+]([O-])c1ccc(Nc2nc(-c3cccnc3)nc3ccccc23)cc1`, the EC50 amounted to 13 nM in data set [2] and 21 nM in data set [1].
In the case of `Cc1cc(Nc2ccc(O)c([N+](=O)[O-])c2)nc(-c2ccccc2)n1`, the 50% effective concentration (EC50) worked out at 22 nM in data set [2] and 62 nM in data set [1].

As usually defined, the EC50 is the concentration giving half of the maximal effect.

Source of the values: BindingDB's records for doi:10.1021/acs.jmedchem.7b00441 (University of Bonn, 2017).
